{"source": "patent US20250127162A1", "about": "“METHODS AND COMPOSITIONS FOR CONTROLLING PESTS IN RICE” (Globachem NV, priority 2022, published 2025)", "key": {"Chilo suppressalis": {"system": "Chilo suppressalis", "test": "Rice field trials, control of Chilo suppressalis (Example 1, Trials 1-2, Spain)", "type": "in vivo", "settings": "applications AB", "protocol": "(§1) All applications were made with an EC formulation containing 650 g/L of pelargonic acid (e.g., 685 g/L of 95% purity pelargonic acid), an anionic emulsifier and a branched fatty acid ester solvent.\nTrials 1˜4 assessing the use of pelargonic acid for controlling Chilo suppressalis in rice were conducted in Spain and Thailand.\n(§2) Application A was made to the crops at the beginning of infestations; for these trials, Stage BBCH 59; Application B was made 14 days after Application A.\n(§3) Trial 1 was conducted in Spain using a water volume of 300 L/ha of water per application unless otherwise indicated. Pest Incidence/Number of Insects (PESINC) and Pest Severity (PESSEV) as a Percent of Untreated Check (% UNCK) as well as Phytotoxicity were assessed at various treatment evaluation intervals.\nas §3, with “2” for “1”"}, "Rice": {"system": "Rice", "test": "Phytotoxicity on rice (Example 1, Trials 1-2, Spain)", "type": "in vivo", "parameters": "key: % leaf necrosis/discoloration vs untreated plants", "settings": "applications AB", "text": "“Low Phytotoxicity” of pelargonic acid, as used herein means that the toxic effect on plants is absent or at such a level so as not to adversely impact the growth and/or yield of the plant under a given set of test conditions, e.g., at a given concentration of pelargonic acid. Phytotoxic effects may be measured in a number of different ways, for example, according to the principals set out in OEPP/EPPO Bulletin (2014) 44 (3), 265-273 “PP 1/135 (4) Phytotoxicity assessment”. The phytotoxic effect on plants may be assessed visually as a function of the percentage of discoloration to the leaves and/or the appearance of necrosis. When the pelargonic acid compositions are applied to the foliage of the rice plants in accordance with the teachings herein, will typically result in a level of phytotoxicity of less than 20%, preferably less than 15%, more preferably less than 10% necrosis of the leaves in comparison to untreated plants. Preferred uses of the invention will typically result in phytotoxicity of 7% or less, whilst the most preferred uses will typically result in phytotoxicity of 5% or less. The above values are approximate as any purely visual assessment is likely to contain a degree of subjectivity.\nas §1, §2, §3\nas §3, with “2” for “1”"}, "[1]": {"settings": "Trial 1, 14 DAB, water volume 150 L/ha"}, "[2]": {"settings": "Trial 1, 14 DAB, water volume 300 L/ha, rate in treatment name"}, "[3]": {"settings": "Trial 1, 27 DAB, water volume 150 L/ha"}, "[4]": {"settings": "Trial 1, 27 DAB, water volume 300 L/ha, rate in treatment name, listed as PA 585 g/ha"}, "[5]": {"settings": "Trial 1, 27 DAB, water volume 300 L/ha, rate in treatment name, listed as PA 975 g/ha"}, "[6]": {"settings": "Trial 1, 27 DAB, water volume 300 L/ha, rate in treatment name, listed as PA 1300 g/ha"}, "[7]": {"settings": "Trial 1, 27 DAB, water volume 300 L/ha, rate in treatment name, listed as PA 2600 g/ha"}, "[8]": {"settings": "Trial 1, 40 DAB, water volume 150 L/ha"}, "[9]": {"settings": "Trial 1, 40 DAB, water volume 300 L/ha, rate in treatment name, listed as PA 585 g/ha"}, "[10]": {"settings": "Trial 1, 40 DAB, water volume 300 L/ha, rate in treatment name, listed as PA 975 g/ha"}, "[11]": {"settings": "Trial 1, 40 DAB, water volume 300 L/ha, rate in treatment name, listed as PA 1300 g/ha"}, "[12]": {"settings": "Trial 1, 40 DAB, water volume 300 L/ha, rate in treatment name, listed as PA 2600 g/ha"}}}
{"smiles": "CCCCCCCCC(=O)O", "note": "[PA 650 g/ha, pelargonic acid]", "values": [{"measurement": "PESINC (Pest Incidence/Number of Insects) % UNCK (% efficacy)", "setting": "Chilo suppressalis; [1]", "result": 75, "unit": "% UNCK"}, {"measurement": "PESSEV (Pest Severity) % UNCK", "setting": "Chilo suppressalis; [1]", "result": 75, "unit": "% UNCK"}, {"measurement": "PESINC (Pest Incidence/Number of Insects) % UNCK (% efficacy)", "setting": "Chilo suppressalis; [2]", "result": 75, "unit": "% UNCK"}, {"measurement": "PESSEV (Pest Severity) % UNCK", "setting": "Chilo suppressalis; [2]", "result": 75, "unit": "% UNCK"}, {"measurement": "PESINC (Pest Incidence/Number of Insects) % UNCK (% efficacy)", "setting": "Chilo suppressalis; [3]", "result": 42.08, "unit": "% UNCK"}, {"measurement": "PESSEV (Pest Severity) % UNCK", "setting": "Chilo suppressalis; [3]", "result": 42.08, "unit": "% UNCK"}, {"measurement": "PESINC (Pest Incidence/Number of Insects) % UNCK (% efficacy)", "setting": "Chilo suppressalis; [4]", "result": 30.83, "unit": "% UNCK"}, {"measurement": "PESSEV (Pest Severity) % UNCK", "setting": "Chilo suppressalis; [4]", "result": 30.83, "unit": "% UNCK"}, {"measurement": "PESINC (Pest Incidence/Number of Insects) % UNCK (% efficacy)", "setting": "Chilo suppressalis; [5]", "result": 42.08, "unit": "% UNCK"}, {"measurement": "PESSEV (Pest Severity) % UNCK", "setting": "Chilo suppressalis; [5]", "result": 42.08, "unit": "% UNCK"}, {"measurement": "PESINC (Pest Incidence/Number of Insects) % UNCK (% efficacy)", "setting": "Chilo suppressalis; [6]", "result": 46.25, "unit": "% UNCK"}, {"measurement": "PESSEV (Pest Severity) % UNCK", "setting": "Chilo suppressalis; [6]", "result": 50, "unit": "% UNCK"}, {"measurement": "PESINC (Pest Incidence/Number of Insects) % UNCK (% efficacy)", "setting": "Chilo suppressalis; [7]", "result": 59.58, "unit": "% UNCK"}, {"measurement": "PESSEV (Pest Severity) % UNCK", "setting": "Chilo suppressalis; [7]", "result": 59.58, "unit": "% UNCK"}, {"measurement": "PESINC (Pest Incidence/Number of Insects) % UNCK (% efficacy)", "setting": "Chilo suppressalis; [8]", "result": 43.75, "unit": "% UNCK"}, {"measurement": "PESSEV (Pest Severity) % UNCK", "setting": "Chilo suppressalis; [8]", "result": 43.75, "unit": "% UNCK"}, {"measurement": "PESINC (Pest Incidence/Number of Insects) % UNCK (% efficacy)", "setting": "Chilo suppressalis; [9]", "result": 27.71, "unit": "% UNCK"}, {"measurement": "PESSEV (Pest Severity) % UNCK", "setting": "Chilo suppressalis; [9]", "result": 29.21, "unit": "% UNCK"}, {"measurement": "PESINC (Pest Incidence/Number of Insects) % UNCK (% efficacy)", "setting": "Chilo suppressalis; [10]", "result": 46.88, "unit": "% UNCK"}, {"measurement": "PESSEV (Pest Severity) % UNCK", "setting": "Chilo suppressalis; [10]", "result": 46.88, "unit": "% UNCK"}, {"measurement": "PESINC (Pest Incidence/Number of Insects) % UNCK (% efficacy)", "setting": "Chilo suppressalis; [11]", "result": 47.5, "unit": "% UNCK"}, {"measurement": "PESSEV (Pest Severity) % UNCK", "setting": "Chilo suppressalis; [11]", "result": 47.5, "unit": "% UNCK"}, {"measurement": "PESINC (Pest Incidence/Number of Insects) % UNCK (% efficacy)", "setting": "Chilo suppressalis; [12]", "result": 63.13, "unit": "% UNCK"}, {"measurement": "PESSEV (Pest Severity) % UNCK", "setting": "Chilo suppressalis; [12]", "result": 63.13, "unit": "% UNCK"}, {"measurement": "PESSEV (Pest Severity) % UNCK", "setting": "Chilo suppressalis; Trial 2, 14 DAB, water volume 150 L/ha", "result": 100, "unit": "% UNCK"}, {"measurement": "PESSEV (Pest Severity) % UNCK", "setting": "Chilo suppressalis; Trial 2, 14 DAB, water volume 300 L/ha, rate in treatment name", "result": 100, "unit": "% UNCK"}, {"measurement": "PESINC (Pest Incidence/Number of Insects) % UNCK", "setting": "Chilo suppressalis; Trial 2, 15 DAB, water volume 150 L/ha", "result": 100, "unit": "% UNCK"}, {"measurement": "PESINC (Pest Incidence/Number of Insects) % UNCK", "setting": "Chilo suppressalis; Trial 2, 15 DAB, water volume 300 L/ha, rate in treatment name", "result": 100, "unit": "% UNCK"}, {"measurement": "PESSEV (Pest Severity) % UNCK", "setting": "Chilo suppressalis; Trial 2, 27 DAB, water volume 150 L/ha", "result": 45.31, "unit": "% UNCK"}, {"measurement": "PESSEV (Pest Severity) % UNCK", "setting": "Chilo suppressalis; Trial 2, 27 DAB, water volume 300 L/ha, rate in treatment name, listed as PA 585 g/ha", "result": 55.21, "unit": "% UNCK"}, {"measurement": "PESSEV (Pest Severity) % UNCK", "setting": "Chilo suppressalis; Trial 2, 27 DAB, water volume 300 L/ha, rate in treatment name, listed as PA 975 g/ha", "result": 57.29, "unit": "% UNCK"}, {"measurement": "PESSEV (Pest Severity) % UNCK", "setting": "Chilo suppressalis; Trial 2, 27 DAB, water volume 300 L/ha, rate in treatment name, listed as PA 1300 g/ha", "result": 69.27, "unit": "% UNCK"}, {"measurement": "PESSEV (Pest Severity) % UNCK", "setting": "Chilo suppressalis; Trial 2, 27 DAB, water volume 300 L/ha, rate in treatment name, listed as PA 2600 g/ha", "result": 77.6, "unit": "% UNCK"}, {"measurement": "PESINC (Pest Incidence/Number of Insects) % UNCK", "setting": "Chilo suppressalis; Trial 2, 28 DAB, water volume 150 L/ha", "result": 40, "unit": "% UNCK"}, {"measurement": "PESINC (Pest Incidence/Number of Insects) % UNCK", "setting": "Chilo suppressalis; Trial 2, 28 DAB, water volume 300 L/ha, rate in treatment name, listed as PA 585 g/ha", "result": 45, "unit": "% UNCK"}, {"measurement": "PESINC (Pest Incidence/Number of Insects) % UNCK", "setting": "Chilo suppressalis; Trial 2, 28 DAB, water volume 300 L/ha, rate in treatment name, listed as PA 975 g/ha", "result": 45, "unit": "% UNCK"}, {"measurement": "PESINC (Pest Incidence/Number of Insects) % UNCK", "setting": "Chilo suppressalis; Trial 2, 28 DAB, water volume 300 L/ha, rate in treatment name, listed as PA 1300 g/ha", "result": 57.5, "unit": "% UNCK"}, {"measurement": "PESINC (Pest Incidence/Number of Insects) % UNCK", "setting": "Chilo suppressalis; Trial 2, 28 DAB, water volume 300 L/ha, rate in treatment name, listed as PA 2600 g/ha", "result": 74.17, "unit": "% UNCK"}, {"measurement": "PESSEV (Pest Severity) % UNCK", "setting": "Chilo suppressalis; Trial 2, 40 DAB, water volume 150 L/ha", "result": 57.29, "unit": "% UNCK"}, {"measurement": "PESSEV (Pest Severity) % UNCK", "setting": "Chilo suppressalis; Trial 2, 40 DAB, water volume 300 L/ha, rate in treatment name, listed as PA 585 g/ha", "result": 62.5, "unit": "% UNCK"}, {"measurement": "PESSEV (Pest Severity) % UNCK", "setting": "Chilo suppressalis; Trial 2, 40 DAB, water volume 300 L/ha, rate in treatment name, listed as PA 975 g/ha", "result": 68.75, "unit": "% UNCK"}, {"measurement": "PESSEV (Pest Severity) % UNCK", "setting": "Chilo suppressalis; Trial 2, 40 DAB, water volume 300 L/ha, rate in treatment name, listed as PA 1300 g/ha", "result": 68.75, "unit": "% UNCK"}, {"measurement": "PESSEV (Pest Severity) % UNCK", "setting": "Chilo suppressalis; Trial 2, 40 DAB, water volume 300 L/ha, rate in treatment name, listed as PA 2600 g/ha", "result": 79.38, "unit": "% UNCK"}, {"measurement": "PESINC (Pest Incidence/Number of Insects) % UNCK", "setting": "Chilo suppressalis; Trial 2, 41 DAB, water volume 150 L/ha", "result": 39.29, "unit": "% UNCK"}, {"measurement": "PESINC (Pest Incidence/Number of Insects) % UNCK", "setting": "Chilo suppressalis; Trial 2, 41 DAB, water volume 300 L/ha, rate in treatment name, listed as PA 585 g/ha", "result": 52.86, "unit": "% UNCK"}, {"measurement": "PESINC (Pest Incidence/Number of Insects) % UNCK", "setting": "Chilo suppressalis; Trial 2, 41 DAB, water volume 300 L/ha, rate in treatment name, listed as PA 975 g/ha", "result": 52.86, "unit": "% UNCK"}, {"measurement": "PESINC (Pest Incidence/Number of Insects) % UNCK", "setting": "Chilo suppressalis; Trial 2, 41 DAB, water volume 300 L/ha, rate in treatment name, listed as PA 1300 g/ha", "result": 57.86, "unit": "% UNCK"}, {"measurement": "PESINC (Pest Incidence/Number of Insects) % UNCK", "setting": "Chilo suppressalis; Trial 2, 41 DAB, water volume 300 L/ha, rate in treatment name, listed as PA 2600 g/ha", "result": 67.86, "unit": "% UNCK"}, {"measurement": "Phytotoxicity", "setting": "Rice; Trial 1 (PESINC table), water volume 150 L/ha", "result": 0}, {"measurement": "Phytotoxicity", "setting": "Rice; Trial 1 (PESINC table), water volume 300 L/ha", "result": 0}, {"measurement": "Phytotoxicity", "setting": "Rice; Trial 1 (PESSEV table), water volume 150 L/ha", "result": 0}, {"measurement": "Phytotoxicity", "setting": "Rice; Trial 1 (PESSEV table), water volume 300 L/ha", "result": 0}]}
